In ChEMBL document CHEMBL1150830, “Polychlorinated acetamides from the cyanobacterium Microcoleus lyngbyaceus” (J Nat Prod, 2001) one finds Activity data, which are given here for two molecules.

Active and inactive are the calls of the source. No cut-off for these calls is given here.

In this assay the test system is Human immunodeficiency virus 1. The experiment in a line: Antiviral activity against HIV1 infected in human H9 cells assessed as inhibition of virus-induced cytopathic effect by tetrazolium-based method. It is filed as functional, organism-based. Background: Damage to the host cells serves as the signal in cytopathic effect assays.

With `CC(=O)NC(CCCC#CCC(Cl)(Cl)Cl)CCCC#CCC(Cl)(Cl)Cl`, the outcome was inactive.

In the case of `CC(=O)NC(CCCC#CCC(Cl)Cl)CCCC#CCC(Cl)(Cl)Cl` (configuration not stated), the result was inactive.
